Measurements reported in paper PMC10893631, “Receptor-based pharmacophore modeling, molecular docking, synthesis and biological evaluation of novel VEGFR-2, FGFR-1, and BRAF multi-kinase inhibitors” (BMC Chemistry, 2024).
Like-named read-outs stand apart in the source and are kept apart here.

Key:
Type in all cases: cell-based, human
[1] = tested on: NCI panel of 60 tumor cell lines; test: NCI SRB growth inhibition, whole panel mean (single dose 10 µM / five-dose); details: Homo sapiens
Procedure, shortened: (§1)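 Single-dose screen output reported as mean graph; selected compounds then run at five concentrations. Cells pre-grown 24 h before drug addition, fixed with TCA, and quantified by SRB dye binding.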

[2] = tested on: SF-539; test: NCI SRB growth inhibition (single dose 10 µM / five-dose); details: Homo sapiens; for inhibition at 10 µM: SF-539 (CNS cancer), read-out: GI%
Procedure, shortened: as §1

[3] = tested on: BT-549; test: as above; details: Homo sapiens; for inhibition at 10 µM: BT-549 (Breast cancer), read-out: GI%
Procedure, shortened: as §1

[4] = tested on: A549/ATCC; test: as above; details: Homo sapiens; for inhibition at 10 µM: A549/ATCC (Non-small cell lung cancer), read-out: GI%
Procedure, shortened: as §1

[5] = tested on: UACC-62; test: as above; details: Homo sapiens; for inhibition at 10 µM: UACC-62 (Melanoma), read-out: GI%
Procedure, shortened: as §1

[6] = tested on: 786–0; test: as above; details: Homo sapiens; for inhibition at 10 µM: 786–0 (Renal cancer), read-out: GI%
Procedure, shortened: as §1

[7] = tested on: MOLT-4; test: as above; details: Homo sapiens; for inhibition at 10 µM: MOLT-4 (Leukemia), read-out: GI%
Procedure, shortened: as §1

[8] = tested on: HL-60(TB); test: as above; details: Homo sapiens; for inhibition at 10 µM: HL-60(TB) (Leukemia), read-out: GI%
Procedure, shortened: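 SRB protein stain of fixed cells; compounds tested at one dose (10 µM) or five serial dilutions (10-fold or ½ log), diluted from DMSO stock. Cells plated 24 h before dosing, with a time-zero plate fixed in TCA. Percent growth derived from Tz, control and test absorbances; TGI taken where Ti = Tz.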

[9] = tested on: UACC-257; test: as above; details: Homo sapiens; for inhibition at 10 µM: UACC-257 (Melanoma), read-out: GI%
Procedure, shortened: as §1

[10] = tested on: OVCAR-8; test: as above; details: Homo sapiens; for inhibition at 10 µM: OVCAR-8 (Ovarian cancer), read-out: GI%
Procedure, shortened: as §1

[11] = tested on: COLO 205; test: as above; details: Homo sapiens; for inhibition at 10 µM: COLO 205 (Colon cancer), read-out: GI%
Procedure, shortened: as §1

[12] = tested on: CAKI-1; test: as above; details: Homo sapiens; for inhibition at 10 µM: CAKI-1 (Renal cancer), read-out: GI%
Procedure, shortened: as §1

[13] = tested on: MDA-MB-468; test: as above; details: Homo sapiens; for inhibition at 10 µM: MDA-MB-468 (Breast cancer), read-out: GI%
Procedure, shortened: as §1

[14] = tested on: UO-31; test: as above; details: Homo sapiens; for inhibition at 10 µM: UO-31 (Renal cancer), read-out: GI%
Procedure, shortened: as §1

[15] = tested on: SW-620; test: as above; details: Homo sapiens; for inhibition at 10 µM: SW-620 (Colon cancer), read-out: GI%
Procedure, shortened: as §1

[16] = tested on: OVCAR-5; test: as above; details: Homo sapiens; for inhibition at 10 µM: OVCAR-5 (Ovarian cancer), read-out: GI%
Procedure, shortened: as §1

[17] = tested on: MALME-3 M; test: as above; details: Homo sapiens; for inhibition at 10 µM: MALME-3 M (Melanoma), read-out: GI%
Procedure, shortened: as §1

[18] = tested on: HS 578 T; test: as above; details: Homo sapiens; for inhibition at 10 µM: HS 578 T (Breast cancer), read-out: GI%
Procedure, shortened: as §1

[19] = tested on: TK-10; test: as above; details: Homo sapiens; for inhibition at 10 µM: TK-10 (Renal cancer), read-out: GI%
Procedure, shortened: as §1

[20] = tested on: HCC-2998; test: as above; details: Homo sapiens; for inhibition at 10 µM: HCC-2998 (Colon cancer), read-out: GI%
Procedure, shortened: as §1

[21] = tested on: SR; test: as above; details: Homo sapiens; for inhibition at 10 µM: SR (Leukemia), read-out: GI%
Procedure, shortened: as §1

[22] = tested on: HCT-116; test: as above; details: Homo sapiens, HCT-116; for inhibition at 10 µM: read-out: GI%
Procedure, shortened: as §1

[23] = tested on: MCF7; test: as above; details: Homo sapiens; for inhibition at 10 µM: MCF7 (Breast cancer), read-out: GI%
Procedure, shortened: as §1

[24] = mean over NCI 60 cell lines, > 100% = lethal effect, read-out: mean growth inhibition % (GI%)
[25] = mean over NCI panel of 60 tumor cell lines, read-out: Mean growth inhibition %

Compound O=C(NN=Cc1ccccc1O)c1ccc2[nH]c(-c3ccc(Cl)cc3)nc2c1 [8o, 2-(4-Chlorophenyl)-N'-(2-hydroxybenzylidene)-1H-benzo[d]imidazole-5-carbohydrazide] has an inhibition at 10 µM [1, 24] of over 100%, a GI50 ([1]; mean over NCI cancer cell lines, five-dose) of 5440 nM and an inhibition at 10 µM [1, 25] of over 100%. It also gave an inhibition at 10 µM [2] of over 100%, a GI50 ([2]; SF-539, CNS cancer, five-dose) of 370 nM and an inhibition at 10 µM [3] of 60.6%. It also gave a GI50 ([3]; BT-549, Breast cancer, five-dose) of 3570 nM, an inhibition at 10 µM [4] of 87% and a GI50 ([4]; A549/ATCC, Non-small cell lung cancer, five-dose) of 1800 nM. For the same compound, the inhibition at 10 µM [5] was 95.3%, the GI50 ([5]; UACC-62, Melanoma, five-dose) was 1690 nM and the inhibition at 10 µM [6] was over 100%. It also gave a GI50 ([6]; 786–0, Renal cancer, five-dose) of 830 nM, an inhibition at 10 µM [7] of 60.8% and a GI50 ([7]; MOLT-4, Leukemia, five-dose) of 280 nM. It also gave an inhibition at 10 µM [8] of 47.1%, a GI50 ([8]; HL-60(TB), Leukemia, five-dose) of 310 nM and an inhibition at 10 µM [9] of 42.4%. The GI50 ([9]; UACC-257, Melanoma, five-dose) was 7350 nM, the inhibition at 10 µM [10] was over 100% and the GI50 ([10]; OVCAR-8, Ovarian cancer, five-dose) was 980 nM. For the same compound, the GI50 ([11]; COLO 205, Colon cancer, five-dose) was 890 nM, the inhibition at 10 µM [12] was over 100% and the GI50 ([12]; CAKI-1, Renal cancer, five-dose) was 220 nM. It also gave an inhibition at 10 µM [13] of over 100%, a GI50 ([13]; MDA-MB-468, Breast cancer, five-dose) of 1510 nM and an inhibition at 10 µM [14] of over 100%. The GI50 ([14]; UO-31, Renal cancer, five-dose) was 310 nM, the inhibition at 10 µM [15] was over 100% and the GI50 ([15]; SW-620, Colon cancer, five-dose) was 330 nM. For the same compound, the inhibition at 10 µM [16] was 55.9%, the GI50 ([16]; OVCAR-5, Ovarian cancer, five-dose) was 2120 nM and the inhibition at 10 µM [17] was over 100%. It also gave a GI50 ([17]; MALME-3 M, Melanoma, five-dose) of 1030 nM, an inhibition at 10 µM [18] of over 100% and a GI50 ([18]; HS 578 T, Breast cancer, five-dose) of 260 nM. For the same compound, the inhibition at 10 µM [19] was 95%, the GI50 ([19]; TK-10, Renal cancer, five-dose) was 5080 nM and the inhibition at 10 µM [20] was 78%. For the same compound, the GI50 ([20]; HCC-2998, Colon cancer, five-dose) was 1380 nM, the inhibition at 10 µM [21] was 75.2% and the GI50 ([21]; SR, Leukemia, five-dose) was 120 nM. For the same compound, the GI50 [22] was 1080 nM, the inhibition at 10 µM [22] was 98.4% and the inhibition at 10 µM [23] was 93.7%. It also gave a GI50 ([23]; MCF7, Breast cancer, five-dose) of 160 nM.
With COc1ccc(C=NNC(=O)c2ccc3[nH]c(-c4ccccc4)nc3c2)cc1O [8e, N'-(3-Hydroxy-4-methoxybenzylidene)-2-phenyl-1H-benzo[d]imidazole-5-carbohydrazide] the inhibition at 10 µM [1, 24] was 16.8%, the inhibition at 10 µM [1, 25] was 16.8% and the inhibition at 10 µM [2] was 32.2%. For the same compound, the inhibition at 10 µM [3] was under 5%, the inhibition at 10 µM [4] was under 5% and the inhibition at 10 µM [5] was 18.7%. It also gave an inhibition at 10 µM [6] of 16.6%, an inhibition at 10 µM [7] of 36.1% and an inhibition at 10 µM [8] of 24.7%. For the same compound, the inhibition at 10 µM [9] was 13.8%, the inhibition at 10 µM [10] was 25.2% and the inhibition at 10 µM [11] was 35.4%. The inhibition at 10 µM [12] was 17.6%, the inhibition at 10 µM [13] was 7.65% and the inhibition at 10 µM [14] was 38.2%. It also gave an inhibition at 10 µM [15] of under 5%, an inhibition at 10 µM [16] of under 5% and an inhibition at 10 µM [17] of 78.4%. For the same compound, the inhibition at 10 µM [18] was 6.89%, the inhibition at 10 µM [19] was under 5% and the inhibition at 10 µM [20] was under 5%. It also gave an inhibition at 10 µM [21] of 44.1%, an inhibition at 10 µM [22] of 15% and an inhibition at 10 µM [23] of 70.5%.
In the case of O=C(NN=Cc1cccc(O)c1)c1ccc2[nH]c(-c3ccc(Cl)cc3)nc2c1 [8p, 2-(4-Chlorophenyl)-N'-(3-hydroxybenzylidene)-1H-benzo[d]imidazole-5-carbohydrazide], the inhibition at 10 µM [1, 24] is reported as 25.4%, the inhibition at 10 µM [1, 25] is reported as 25.4% and the inhibition at 10 µM [2] is reported as 32.4%. It also gave an inhibition at 10 µM [3] of under 5%, an inhibition at 10 µM [4] of 7.53% and an inhibition at 10 µM [5] of 19.6%. The inhibition at 10 µM [6] was 22.2%, the inhibition at 10 µM [7] was 68.6% and the inhibition at 10 µM [8] was under 5%. For the same compound, the inhibition at 10 µM [9] was under 5%, the inhibition at 10 µM [10] was 19% and the inhibition at 10 µM [11] was 34.6%. The inhibition at 10 µM [12] was under 5%, the inhibition at 10 µM [13] was 65.8% and the inhibition at 10 µM [14] was 14.9%. It also gave an inhibition at 10 µM [15] of 6.31%, an inhibition at 10 µM [16] of under 5% and an inhibition at 10 µM [17] of 58.9%. For the same compound, the inhibition at 10 µM [18] was 27.1%, the inhibition at 10 µM [19] was under 5% and the inhibition at 10 µM [20] was 15.9%. It also gave an inhibition at 10 µM [21] of 26.4%, an inhibition at 10 µM [22] of 37.7% and an inhibition at 10 µM [23] of 72.3%.
